In patent US20250281424A1 (New York Blood Center, Inc, priority 2020, published 2025):
Like-named read-outs stand apart in the source and are kept apart here.

Tests used:
human PF4 = target: T1, human PF4 (Homo sapiens, UniProt P02776); experiment: Inhibition of PF4 tetramer formation (BS3 cross-linking, SDS-PAGE); type: biochemical; conditions: for IC50: read-out: IC50 of PF4 tetramer formation inhibition
T1 construct: PF4 is a 70 amino acid, lysine-rich 7.8 kDa platelet-specific protein; made in house; host or cells: Escherichia coli BL21DE3 pLysS (pT7-7) and/or Drosophila S2 cells
T1 sequence (P02776 32-101): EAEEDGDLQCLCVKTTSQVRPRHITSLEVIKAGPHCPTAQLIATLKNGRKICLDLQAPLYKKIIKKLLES
Summary of the method: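 Recombinant human wild-type PF4 (E. coli-expressed, heparin-purified), 10 μg/ml in PBS, incubated with compound 15 min at 37° C or 60 min at room temperature, then cross-linked with 0.2 mM BS3 for 30 min at room temperature. Reducing 12% SDS-PAGE; bands quantified as % tetramer, trimer, dimer, monomer versus compound-free control.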

[1] = Cytotoxicity NIH3T3 (MTS reduction); type: cell-based; conditions: mouse, NIH3T3 cells, 1 hour exposure in the absence of serum, N = 3, read-out: Cytotox NIH3T3 EC50
[2] = Human microsome stability; type: in vitro ADME; conditions: for half-life at 0.5 μM / microsomal CLint at 0.5 μM: Human microsomes, compound conc = 0.5 μM, n = 1; for half-life at 0.5 μM: read-out: Human microsome stability Half life t1/2; for microsomal CLint at 0.5 μM: read-out: Human microsome stability Intrinsic Clearance Clint (ml/min/mg protein); for intrinsic clearance in human microsome assay / stability in human microsome assay: human microsomes
Description: (§1) Certain exemplified compounds were examined for ADMET (absorption, distribution, metabolism, excretion and toxicity) profiling using conventional assays with the results shown in the Tables 3A-3C below.

P450 1A2 = target: T2, P450 1A2 (Homo sapiens, UniProt P05177); experiment: P450 inhibition 1A2; type: in vitro ADME
T2 sequence (P05177 1-516): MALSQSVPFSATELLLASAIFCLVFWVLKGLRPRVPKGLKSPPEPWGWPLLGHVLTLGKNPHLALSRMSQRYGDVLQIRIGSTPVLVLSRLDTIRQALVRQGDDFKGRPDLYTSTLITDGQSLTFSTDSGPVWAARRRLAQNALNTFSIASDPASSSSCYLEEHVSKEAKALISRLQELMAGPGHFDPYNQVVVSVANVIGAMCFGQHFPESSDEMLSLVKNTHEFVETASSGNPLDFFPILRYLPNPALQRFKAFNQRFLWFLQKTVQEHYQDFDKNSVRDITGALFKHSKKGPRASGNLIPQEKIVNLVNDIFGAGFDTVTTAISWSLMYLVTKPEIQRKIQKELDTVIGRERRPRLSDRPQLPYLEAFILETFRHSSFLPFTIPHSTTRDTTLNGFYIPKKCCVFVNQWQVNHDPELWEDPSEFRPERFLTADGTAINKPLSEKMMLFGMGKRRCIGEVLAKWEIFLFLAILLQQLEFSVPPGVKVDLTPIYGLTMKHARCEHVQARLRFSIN
Experimental: as §1
(§2) Examples 1 and 3 were evaluated as inhibitors of the five P450s that are the source of most DDI issues. […] The tested compounds meet drug property criteria for IV administration.

P450 2C9 = P450 2C9 (Homo sapiens, UniProt P11712); experiment: P450 inhibition 2C9; type: in vitro ADME
Experimental: as §1, §2

Chain of P450 2C9 (P11712 whole entry): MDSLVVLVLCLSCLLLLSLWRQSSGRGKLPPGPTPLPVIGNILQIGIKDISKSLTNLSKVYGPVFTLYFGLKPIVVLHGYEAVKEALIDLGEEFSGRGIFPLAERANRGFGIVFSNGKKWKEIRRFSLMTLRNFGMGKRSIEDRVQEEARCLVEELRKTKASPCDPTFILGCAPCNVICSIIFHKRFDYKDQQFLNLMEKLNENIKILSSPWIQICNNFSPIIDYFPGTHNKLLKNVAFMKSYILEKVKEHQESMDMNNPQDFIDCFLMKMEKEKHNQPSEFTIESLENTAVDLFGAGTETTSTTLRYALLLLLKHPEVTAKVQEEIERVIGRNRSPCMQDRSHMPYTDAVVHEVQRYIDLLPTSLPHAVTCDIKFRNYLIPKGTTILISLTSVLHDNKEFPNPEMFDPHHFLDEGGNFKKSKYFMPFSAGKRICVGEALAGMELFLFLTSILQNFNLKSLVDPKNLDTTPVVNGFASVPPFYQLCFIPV

inhibition at 100 µM (human PF4; 100 μM inhibitor, read-out: % inhibition of PF4 tetramer formation at single concentration of inhibitor) [%] | inhibition of PF4 tetramerization (human PF4; FIG. 6A) | IC50 (P450 2C9; read-out: P450 Inhibition IC50 2C9) [µM] | SMILES | IC50 (human PF4) [µM] | EC50 at 1 h [1] [µg/mL] | half-life at 0.5 μM [2] [h] | microsomal CLint at 0.5 μM [2] [mL/min/mg] | intrinsic clearance in human microsome assay [2] | stability in human microsome assay [2] | IC50 (P450 1A2) [µM] | inhibition of P450 1A2 (P450 1A2) | IC50 (P450 2C9) [µM] | inhibition of P450 2C9 (P450 2C9)
– | – | – | CC(=O)C1C(=O)c2ccc(C(=O)c3ccc4c(c3)C(=O)C(C(C)=O)C4=O)cc2C1=O (stereo not drawn) [Example 1, 5,5′-carbonylbis(2-acetyl-1h-indene-1,3(2h)-dione)] | 7 | > 1000 | 1.44 | 15.8 | low intrinsic clearance | excellent stability | 46.7 | moderate inhibition | 31.9 | only moderate inhibition
100 | dose-dependent inhibition | 16.7 | CCOC(=O)C1C(=O)c2ccc(C(=O)c3ccc4c(c3)C(=O)C(C(=O)OCC)C4=O)cc2C1=O (stereo not drawn) [Example 3, diethyl 5,5′-carbonylbis(1,3-dioxo-2,3-dihydro-1h-indene-2-carboxylate)] | 2 | > 500 | > 2.42 | < 9.5 | low intrinsic clearance | excellent stability | > 100 | – | – | only moderate inhibition
